According to PMC5768359, “Dietary quercetin potentiates the antiproliferative effect of interferon-α in hepatocellular carcinoma cells through activation of JAK/STAT pathway signaling by inhibition of SHP2 phosphatase” (Oncotarget, 2017):

Columns and labels:
[1] = molecular target: T1, SHP1 (Homo sapiens, UniProt P29350); test: DiFMUP phosphatase assay with recombinant SHP1; supported by thermal stability shift; type: biochemical
T1 construct: gene PTPN6

[2] = molecular target: T2, SHP2 (Homo sapiens, UniProt Q06124); test: DiFMUP phosphatase assay with recombinant SHP2; supported by cellular thermal shift assay in HEK293A lysate; type: biochemical
T2 construct: gene PTPN11; GST-SHP2 (residues 205–593)
T2 sequence (Q06124 205-593): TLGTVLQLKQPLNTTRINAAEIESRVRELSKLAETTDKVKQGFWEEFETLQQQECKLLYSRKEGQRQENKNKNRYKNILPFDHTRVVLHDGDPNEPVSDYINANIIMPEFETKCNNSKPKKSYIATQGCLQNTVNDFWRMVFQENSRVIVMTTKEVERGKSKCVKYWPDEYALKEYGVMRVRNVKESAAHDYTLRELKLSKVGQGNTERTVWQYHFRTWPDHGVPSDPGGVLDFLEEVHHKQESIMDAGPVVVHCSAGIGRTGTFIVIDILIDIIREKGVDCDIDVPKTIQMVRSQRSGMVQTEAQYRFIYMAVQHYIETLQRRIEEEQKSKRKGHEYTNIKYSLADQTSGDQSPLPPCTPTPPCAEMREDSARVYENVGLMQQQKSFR

T1 sequence (P29350 whole entry): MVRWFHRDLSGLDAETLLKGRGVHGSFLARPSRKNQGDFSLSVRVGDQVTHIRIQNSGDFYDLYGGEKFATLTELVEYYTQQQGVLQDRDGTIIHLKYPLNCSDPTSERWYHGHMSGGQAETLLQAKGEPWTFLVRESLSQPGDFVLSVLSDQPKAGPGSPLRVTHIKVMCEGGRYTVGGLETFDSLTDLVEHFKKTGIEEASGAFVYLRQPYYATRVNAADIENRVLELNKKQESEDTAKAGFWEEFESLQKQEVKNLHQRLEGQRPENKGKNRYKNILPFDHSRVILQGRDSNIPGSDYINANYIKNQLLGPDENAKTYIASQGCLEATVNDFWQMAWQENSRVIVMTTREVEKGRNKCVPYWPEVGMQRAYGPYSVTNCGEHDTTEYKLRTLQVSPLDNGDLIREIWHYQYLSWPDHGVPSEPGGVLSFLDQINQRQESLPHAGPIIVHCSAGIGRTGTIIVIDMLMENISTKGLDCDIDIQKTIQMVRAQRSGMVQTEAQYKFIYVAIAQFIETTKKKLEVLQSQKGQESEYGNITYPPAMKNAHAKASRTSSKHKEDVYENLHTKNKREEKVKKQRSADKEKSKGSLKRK

O=c1c(O)c(-c2ccc(O)c(O)c2)oc2cc(O)cc(O)c12 [quercetin]
IC50 [1]: 31.1 ± 1.27 µM
IC50 [2]: 10.2 ± 0.21 µM
